Values of other authors, collected in patent US9801907B2, “Film-coated and/or granulated calcium-containing compounds and use therof in pharmaceutical compositions” (Takeda Nycomed AS, priority 2005, dated 2017).

Experiments:
[1] = parts substance in parts water
[2] = annual injections of 150.000-300.000 IU; not in the rate of hip fracture

Row | Compound | Solubility in water at 20° C. [1] | overall fracture rate [2]
1 | OC[C@@H](O)[C@@H](O[C@H]1O[C@H](CO)[C@@H](O)[C@H](O)[C@H]1O)[C@H](O)[C@@H](O)CO [Maltitol] | Freely soluble | 
2 | Maltodextrins | Freely soluble | 
3 | vitamin D |  | significant reduction
